Reference: PubChem BioAssay AID1259408 (Genetic Toxicology Data Bank (GENE-TOX), 2018)
Active and inactive are the calls of the source. The rule behind the calls is not given here.

System: GENE-TOX genotoxicity assays, various organisms and cells
Assay: GENE-TOX mutagenicity studies
Details: for call: Assay Type: In vivo carcinogenicity studies
[1] = Species/Cell Type: Nonhuman, Assay Code: CCG+, Evaluation Type: Evaluation A (Pre-1980)
[2] = Species/Cell Type: Rodents, Sex: Male, Assay Type: Dominant lethal test, Assay Code: DLT-, Evaluation Type: Evaluation A (Pre-1980)
[3] = Species/Cell Type: Mouse, Sex: Male, Assay Type: Sperm morphology, Assay Code: SPI-, Evaluation Type: Evaluation A (Pre-1980)
[4] = Species/Cell Type: Escherichia coli WP2, Assay Type: Tryptophan reverse gene mutation, Assay Code: WP2-, Evaluation Type: Evaluation A (Pre-1980)
[5] = Species/Cell Type: Saccharomyces cerevisiae, Assay Type: Mitotic recombination or gene conversion, Assay Code: YEH-, Evaluation Type: Evaluation A (Pre-1980)
[6] = Species/Cell Type: Salmonella typhimurium (one or more of the five standard strains: TA98, TA100, TA1535, TA1537, and TA1538), Assay Type: Histidine reverse gene mutation, Ames assay, Assay Code: SALT, Evaluation Type: Evaluation A (Pre-1980)
[7] = Species/Cell Type: Salmonella typhimurium (one or more of the five standard strains: TA98, TA100, TA1535, TA1537, and TA1538), Assay Type: Histidine reverse gene mutation, Ames assay, Assay Code: SAL+*, Activation: With metabolic activation, Evaluation Type: Evaluation A (Pre-1980)
[8] = Species/Cell Type: Human lymphocytes, Assay Type: Sister-chromatid exchange (SCE) in vitro, Assay Code: SCL+D, Dose Response: With dose response, Evaluation Type: Evaluation B (Post-1980)
[9] = Species/Cell Type: Human, Assay Type: Sister-chromatid exchange (SCE) in vitro, Assay Code: SC1+D, Dose Response: With dose response, Evaluation Type: Evaluation B (Post-1980)
[10] = Species/Cell Type: Drosophila melanogaster, Assay Type: Sex-linked recessive lethal gene mutation, Assay Code: SRLT, Evaluation Type: Evaluation A (Pre-1980)
[11] = Species/Cell Type: Escherichia coli polA (W3119 vs P3478), Assay Type: Rec-assay, DNA effects (bacterial DNA repair), Assay Code: RE1+, Evaluation Type: Evaluation A (Pre-1980)
[12] = Species/Cell Type: Mammalian polychromatic erythrocytes, Assay Type: Micronucleus test, chromosome aberrations, Assay Code: MNT+, Evaluation Type: Evaluation B (Post-1980)
[13] = Species/Cell Type: Saccharomyces cerevisiae, Assay Type: Mitotic recombination or gene conversion, Assay Code: YECT, Evaluation Type: Evaluation A (Pre-1980)
[14] = Species/Cell Type: Human lymphocytes, Assay Type: Sister-chromatid exchange (SCE) in vitro, Assay Code: SCLT, Evaluation Type: Evaluation B (Post-1980)
[15] = Species/Cell Type: Human, Assay Type: Sister-chromatid exchange (SCE) in vitro, Assay Code: SC1T, Evaluation Type: Evaluation B (Post-1980)

Clc1cc2c(cc1Cl)Oc1cc(Cl)c(Cl)cc1O2
mutagenic call (Species/Cell Type: Mammalian polychromatic erythrocytes, Assay Type: Micronucleus test, chromosome aberrations, Assay Code: MNTT, Evaluation Type: Evaluation B (Post-1980)): no conclusion
call [1]: active; positive
mutagenic call (Species/Cell Type: Nonhuman, Assay Type: Sister-chromatid exchange (SCE) in vivo, Assay Code: SC3T, Evaluation Type: Evaluation B (Post-1980)): no conclusion
mutagenic call [2]: inactive; negative

C[C@]12CC[C@H]3[C@@H](CCC4=CC(=O)CC[C@@]43C)[C@@H]1CC[C@@H]2O
mutagenic call (Species/Cell Type: Human, Sex: Male, Assay Type: Sperm morphology, Assay Code: SPH+, Evaluation Type: Evaluation A (Pre-1980)): active; positive
mutagenic call [3]: inactive; negative
call [1]: active; positive

CNC(=O)Oc1ccccc1OC(C)C
mutagenic call (Species/Cell Type: Bacillus subtilis (H17 vs M45), Assay Type: Rec-assay, spot test, DNA effects (bacterial DNA repair), Assay Code: REWT, Evaluation Type: Evaluation A (Pre-1980)): no conclusion
mutagenic call (Species/Cell Type: Bacillus subtilis (H17 vs M45T), Assay Type: Rec-assay, spot test, DNA effects (bacterial DNA repair), Assay Code: REX-, Evaluation Type: Evaluation A (Pre-1980)): inactive; negative
mutagenic call [4]: inactive; negative
mutagenic call (Species/Cell Type: Saccharomyces cerevisiae, Assay Type: Mitotic recombination or gene conversion, Assay Code: YEC-, Evaluation Type: Evaluation A (Pre-1980)): inactive; negative

Nc1c(O)c(S(=O)(=O)O)cc2cc(S(=O)(=O)O)ccc12
mutagenic call [2]: inactive; negative

CC1=C2C(=CO[C@H](C)[C@H]2C)C(=O)C(C(=O)O)=C1O
mutagenic call (Species/Cell Type: Bacillus subtilis (H17 vs M45), Assay Type: Rec-assay, spot test, DNA effects (bacterial DNA repair), Assay Code: REW+, Evaluation Type: Evaluation A (Pre-1980)): active; positive
mutagenic call [5]: inactive; negative

CC(=O)OC[C@]12C[C@H](OC(=O)CC(C)C)C(C)=C[C@H]1O[C@@H]1[C@H](O)[C@@H](OC(C)=O)[C@@]2(C)[C@]12CO2
mutagenic call (Species/Cell Type: Bacillus subtilis (H17 vs M45), Assay Type: Rec-assay, spot test, DNA effects (bacterial DNA repair), Assay Code: REW-, Evaluation Type: Evaluation A (Pre-1980)): inactive; negative
mutagenic call [5]: inactive; negative
mutagenic call [6]: no conclusion

CC1CN(N=O)CC(C)O1 (centres undefined)
mutagenic call [7]: active; positive

CC(C)(C)N(CCCCO)N=O
mutagenic call [6]: no conclusion

O=C(Nc1ccc([N+](=O)[O-])cc1Cl)c1cc(Cl)ccc1O
mutagenic call [8]: active; positive
mutagenic call (Species/Cell Type: Human lymphocytes, Assay Type: Sister-chromatid exchange (SCE) in vivo, Assay Code: SCY+, Evaluation Type: Evaluation B (Post-1980)): active; positive
mutagenic call [9]: active; positive

CCN(CC)C(=S)S
call (Species/Cell Type: Nonhuman, Assay Code: CCG-, Evaluation Type: Evaluation A (Pre-1980)): inactive; negative
mutagenic call (Species/Cell Type: Vicia faba, Assay Type: Chromosome aberrations, Assay Code: VIC+, Evaluation Type: Evaluation A (Pre-1980)): active; positive

O=[N+]([O-])c1ccc(-c2ncn[nH]2)o1
mutagenic call [4]: inactive; negative
mutagenic call (Species/Cell Type: Escherichia coli WP2 UVRA, Assay Type: Tryptophan reverse gene mutation, Assay Code: WPU+, Evaluation Type: Evaluation A (Pre-1980)): active; positive

O=S(=O)(O)NC1CCCCC1
mutagenic call (Species/Cell Type: Drosophila melanogaster, Assay Type: Aneuploidy, sex chromosome gain, chromosome aberrations, Assay Code: DAG-F, Evaluation Type: Evaluation A (Pre-1980)): inactive; negative
mutagenic call (Species/Cell Type: Drosophila melanogaster, Assay Type: Aneuploidy, whole sex chromosome loss, chromosome aberrations, Assay Code: DAC-F, Evaluation Type: Evaluation A (Pre-1980)): inactive; negative
mutagenic call [10]: no conclusion
mutagenic call (Species/Cell Type: Mammalian germ cells, Sex: Male, Assay Type: Chromosome aberrations in vivo, Assay Code: CY9T, Evaluation Type: Evaluation A (Pre-1980)): no conclusion
mutagenic call (Species/Cell Type: Mammalian polychromatic erythrocytes, Assay Type: Micronucleus test, chromosome aberrations, Assay Code: MNTT, Evaluation Type: Evaluation A (Pre-1980)): no conclusion
mutagenic call [3]: inactive; negative
mutagenic call (Species/Cell Type: Nonhuman bone marrow, Assay Type: Chromosome aberrations, in vivo, Assay Code: CY#T, Evaluation Type: Evaluation A (Pre-1980)): no conclusion
mutagenic call (Species/Cell Type: Rodents, Sex: Female, Assay Type: Dominant lethal test, Assay Code: DLTF-, Evaluation Type: Evaluation A (Pre-1980)): inactive; negative
mutagenic call [2]: inactive; negative
mutagenic call (Species/Cell Type: Salmonella typhimurium, Serratia marcesens, Assay Type: Forward and reverse gene mutation, host-mediated assay, Assay Code: HM2-, Evaluation Type: Evaluation A (Pre-1980)): inactive; negative

CN(C)CC/C=C1\c2ccccc2CSc2ccccc21
mutagenic call [2]: inactive; negative

ONc1ccc2c(c1)Cc1ccccc1-2
mutagenic call [10]: no conclusion
mutagenic call [11]: active; positive
mutagenic call (Species/Cell Type: Salmonella typhimurium (one or more of the five standard strains: TA98, TA100, TA1535, TA1537, and TA1538), Assay Type: Histidine reverse gene mutation, Ames assay, Assay Code: SAL+, Evaluation Type: Evaluation A (Pre-1980)): active; positive

OCc1ccn2c1[C@H](O)CC2
mutagenic call [8]: active; positive
mutagenic call [9]: active; positive

Cc1c2ccccc2cc2c3c(ccc12)[C@@H](O)[C@H](O)C=C3
mutagenic call (Species/Cell Type: Chinese hamster lung (V79) cells, Assay Type: Forward gene mutation at the HPRT or ouabain locus, Assay Code: V79+, Evaluation Type: Evaluation A (Pre-1980)): active; positive
call (Species/Cell Type: Nonhuman, Assay Code: CCG+L, Evaluation Type: Evaluation A (Pre-1980)): active; positive

Clc1ccccc1Cl
mutagenic call [12]: active; positive

Cc1cc2nc3ccc(=[N+](C)C)cc-3sc2cc1N
mutagenic call (Species/Cell Type: Bacillus subtilis (H17 vs M45T), Assay Type: Rec-assay, spot test, DNA effects (bacterial DNA repair), Assay Code: REXT, Evaluation Type: Evaluation A (Pre-1980)): no conclusion
mutagenic call [13]: no conclusion

CCCCCC(=O)C(CCCC)c1oc(=O)c(CCCC)c(O)c1CCCC (centres undefined)
mutagenic call [14]: no conclusion
mutagenic call [15]: no conclusion

C/C=C1/C[C@@H](C)[C@@](C)(O)C(=O)OC[C@H]2CCN3CC[C@@H](OC1=O)[C@@H]23
mutagenic call [10]: no conclusion

C=CCOc1ccccc1OCC(O)CNC(C)C (centres undefined)
mutagenic call [12]: active; positive

CC(C)(C)N(CCCC(=O)O)N=O
mutagenic call [6]: no conclusion

O=S(=O)(O)c1cc(-n2nc3ccc4ccccc4c3n2)ccc1/C=C/c1ccccc1
mutagenic call [2]: inactive; negative
mutagenic call [13]: no conclusion
mutagenic call [6]: no conclusion

Cc1ncc(COP(=O)(O)O)c(C=O)c1O
mutagenic call [14]: no conclusion
mutagenic call [15]: no conclusion

NC(=O)c1ncn([C@@H]2O[C@H](CO)[C@@H](O)[C@H]2O)c1O
mutagenic call (Species/Cell Type: Nonhuman, Assay Type: Sister-chromatid exchange (SCE) in vitro, Assay Code: SC2+D, Dose Response: With dose response, Evaluation Type: Evaluation A (Pre-1980)): active; positive

BrCC(Br)C(Br)CBr (centres undefined)
mutagenic call [2]: inactive; negative

O=c1ccn([C@H]2C[C@H](O)[C@@H](COP(=O)(O)O)O2)c(=O)[nH]1
mutagenic call [10]: no conclusion

FC(F)Cl
mutagenic call (Species/Cell Type: Tradescantia species, Assay Type: Gene mutation, Assay Code: TRM+D, Dose Response: With dose response, Evaluation Type: Evaluation A (Pre-1980)): active; positive

COC/C=C(C)/C=C/C=C(C)/C=C/C1=C(C)CCCC1(C)C
mutagenic call [9]: active; positive

COC(=O)COc1ccc(Cl)cc1CCl (tested in a mixture with another compound)
mutagenic call (Species/Cell Type: Saccharomyces cerevisiae, Assay Type: Reverse gene mutation, Assay Code: YERT, Evaluation Type: Evaluation A (Pre-1980)): no conclusion

CCN(CC)CCCC(C)Nc1ccnc2cc(Cl)ccc12 (centres undefined)
mutagenic call [11]: active; positive
mutagenic call (Species/Cell Type: Mammalian cell culture, nonhuman, Assay Type: Micronucleus test in vitro, chromosome aberrations, Assay Code: MN&+, Evaluation Type: Evaluation A (Pre-1980)): active; positive

O=P(O)(O)CCCl
mutagenic call (Species/Cell Type: Allium cepa, Assay Type: Chromosome aberrations, Assay Code: ALC+D, Dose Response: With dose response, Evaluation Type: Evaluation A (Pre-1980)): active; positive

COc1cc(O)c2c(O)c3c(c4c2c1[C@]1(C4)C(C)=CCCC1(C)C)[C@H](O)[C@@]1(O)CC(=O)C(C(N)=O)=C(O)[C@@]1(O)C3=O
mutagenic call [7]: active; positive

CC(C)(Oc1ccc(C2CCCc3ccccc32)cc1)C(=O)O (centres undefined)
call [1]: active; positive

C=CCCCCCC=CCC#CC#CC=CC
mutagenic call (Species/Cell Type: Nonhuman, Assay Type: Sister-chromatid exchange (SCE) in vitro, Assay Code: SC2T, Evaluation Type: Evaluation B (Post-1980)): no conclusion
